Tests used:
Japonica rice [1] = assay: Test D paddy water application plant response rating 0 to 100; assay type: in vivo, Oryza sativa; conditions: 0 to 100 scale, approx. 21 days
Text: (§1) Plastic pots were partially filled with silt loam soil. The soil was then saturated with water. […] After planting, water levels were raised to 3 cm above the soil surface and maintained at this level throughout the test. Chemical treatments were formulated in a non-phytotoxic solvent and applied directly to the paddy water. Treated plants and controls were maintained in a greenhouse for approximately 21 days, after which all species were compared to controls and visually evaluated. […] A dash (-) response means no test result.

barnyardgrass [2] = assay: as above; assay type: in vivo, Echinochloa crus-galli; conditions: 0 to 100 scale, approx. 21 days
Text: as §1

duck salad = assay: as above; assay type: in vivo, Heteranthera limosa; conditions: 0 to 100 scale, approx. 21 days
Text: as §1

umbrella sedge = assay: as above; assay type: in vivo, Cyperus difformis; conditions: 0 to 100 scale, approx. 21 days
Text: as §1

arrowhead = assay: as above; assay type: in vivo, Sagittaria spp.; conditions: 0 to 100 scale, approx. 21 days
Text: as §1

waterchestnut = assay: as above; assay type: in vivo, Eleocharis spp.; conditions: 0 to 100 scale, approx. 21 days
Text: as §1

Japonica rice [3] = assay: Test E paddy water application plant response rating 0 to 100; assay type: in vivo, oryza sativa; conditions: Flood, 0 to 100 scale, approx. 21 days
Text: (§2) Plastic pots were partially filled with silt loam soil. […] At testing, the water level for all plantings was raised to 2 cm above the soil surface. Chemical treatments were formulated in a non-phytotoxic solvent and applied directly to the paddy water. Treated plants and controls were maintained in a greenhouse for approximately 21 days, after which all species were compared to controls and visually evaluated. […] A dash (-) response means no test result.

barnyardgrass [4] = assay: as above; assay type: in vivo, Echinochloa crus-galli; conditions: Flood, 0 to 100 scale, approx. 21 days
Text: as §2

COCN1C(=O)COc2cc(F)c(-c3nn4c(c3Cl)CCCC4)cc21 [Compound 55]
Japonica rice plant response rating (Japonica rice [1]; Rate 4 g/ha): 10
Japonica rice plant response rating (Japonica rice [1]; Rate 8 g/ha): 10
Japonica rice plant response rating (Japonica rice [1]; Rate 16 g/ha): 20
Japonica rice plant response rating (Japonica rice [1]; Rate 32 g/ha): 25
Japonica rice plant response rating (Japonica rice [1]; Rate 64 g/ha): 25
Barnyardgrass 2 plant response rating (barnyardgrass [2]; Rate 4 g/ha): 0
Barnyardgrass 2 plant response rating (barnyardgrass [2]; Rate 8 g/ha): 0
Barnyardgrass 2 plant response rating (barnyardgrass [2]; Rate 16 g/ha): 10
Barnyardgrass 2 plant response rating (barnyardgrass [2]; Rate 32 g/ha): 40
Barnyardgrass 2 plant response rating (barnyardgrass [2]; Rate 64 g/ha): 100
Duck salad plant response rating (duck salad; Rate 4 g/ha): 0
Duck salad plant response rating (duck salad; Rate 8 g/ha): 0
Duck salad plant response rating (duck salad; Rate 16 g/ha): 0
Duck salad plant response rating (duck salad; Rate 32 g/ha): 0
Duck salad plant response rating (duck salad; Rate 64 g/ha): 10
Umbrella sedge plant response rating (umbrella sedge; Rate 4 g/ha): 0
Umbrella sedge plant response rating (umbrella sedge; Rate 8 g/ha): 0
Umbrella sedge plant response rating (umbrella sedge; Rate 16 g/ha): 20
Umbrella sedge plant response rating (umbrella sedge; Rate 32 g/ha): 80
Umbrella sedge plant response rating (umbrella sedge; Rate 64 g/ha): 80
Arrowhead plant response rating (arrowhead; Rate 4 g/ha): 0
Arrowhead plant response rating (arrowhead; Rate 8 g/ha): 0
Arrowhead plant response rating (arrowhead; Rate 16 g/ha): 20
Arrowhead plant response rating (arrowhead; Rate 32 g/ha): 20
Arrowhead plant response rating (arrowhead; Rate 64 g/ha): 30
Waterchestnut plant response rating (waterchestnut; Rate 4 g/ha): 0
Waterchestnut plant response rating (waterchestnut; Rate 8 g/ha): 0
Waterchestnut plant response rating (waterchestnut; Rate 16 g/ha): 10
Waterchestnut plant response rating (waterchestnut; Rate 32 g/ha): 15
Waterchestnut plant response rating (waterchestnut; Rate 64 g/ha): 20
Japonica 1 plant response rating (Japonica rice [3]; Rate 8 g/ha): 25
Japonica 2 plant response rating (Japonica rice [3]; Rate 8 g/ha): 15
Japonica 1 plant response rating (Japonica rice [3]; Rate 16 g/ha): 75
Japonica 2 plant response rating (Japonica rice [3]; Rate 16 g/ha): 20
Japonica 1 plant response rating (Japonica rice [3]; Rate 32 g/ha): 85
Japonica 2 plant response rating (Japonica rice [3]; Rate 32 g/ha): 25
Japonica 1 plant response rating (Japonica rice [3]; Rate 64 g/ha): 98
Japonica 2 plant response rating (Japonica rice [3]; Rate 64 g/ha): 35
Barnyardgrass 2 plant response rating (barnyardgrass [4]; Rate 8 g/ha): 15
Barnyardgrass 3 plant response rating (barnyardgrass [4]; Rate 8 g/ha): 20
Barnyardgrass 2 plant response rating (barnyardgrass [4]; Rate 16 g/ha): 70
Barnyardgrass 3 plant response rating (barnyardgrass [4]; Rate 16 g/ha): 40
Barnyardgrass 2 plant response rating (barnyardgrass [4]; Rate 32 g/ha): 80
Barnyardgrass 3 plant response rating (barnyardgrass [4]; Rate 32 g/ha): 50
Barnyardgrass 2 plant response rating (barnyardgrass [4]; Rate 64 g/ha): 100
Barnyardgrass 3 plant response rating (barnyardgrass [4]; Rate 64 g/ha): 75
